# Laboratory results reported in a melting point compilation (Tetko et al.; mined from patent text by program, amines drawn as free bases though some values may be those of a salt).
row,melting point [°C],SMILES
1,140 to 144,CC(CC(=O)Nc1cc(Cc2n[nH]c(=O)c3ccccc23)ccc1F)C(=O)O (stereo not given)
2,134 to 137,CCOc1cnc2nc(S(=O)(=O)Cl)nn2c1
3,114 to 115,COC(=O)C(=O)c1ccc(OCCOc2ccc(OC)cc2)cc1
4,84 to 86,Cc1cccc(-c2nc(C(C)C)[nH]c2-c2cccc(-c3cnn(C)c3)c2)n1
5,94 to 95,CCn1c2ccc(C(=O)CCCCCl)cc2c2cc(C(=O)CCCCCl)ccc21
6,60,COC(=O)[C@@H]1CSCN1S(=O)(=O)c1ccc(Cl)c(COc2cccc3c(-n4ccnc4)cc(C)nc23)c1Cl
7,53 to 55,NS(=O)(=O)Oc1cccc(F)c1
8,204 to 205,COC(=O)c1cc(C(=O)NC(C)(C)CO)c2cc(Cc3ccc(F)cc3)cnc2c1O
9,135 to 138,Cc1ccc(Nc2cc(C)nc(-n3nc(C)cc3C)n2)cc1
10,84 to 86,CCCOc1ccc([N+](=O)[O-])cc1[N+](=O)[O-]
11,85 to 88,CCCC(C)Nc1c([N+](=O)[O-])cc(S(C)(=O)=O)c(C)c1[N+](=O)[O-] (stereo not given)
12,118,CC(C)(C)C1=CC(=Cc2cccc([N+](=O)[O-])c2)C=C(C(C)(C)C)C1=O
13,110 to 112,COC(=O)CS(=O)(=O)N1CC=C(c2ccc(Br)c(C)c2)CC1
14,205,COc1ccc(-c2c(Cl)ncn2-c2ccc(S(C)(=O)=O)cc2)cc1
15,71 to 73,CCOC(=O)COc1c(C)cc(C)c2c1CC(Br)C2=O (stereo not given)
16,210 to 212,CCOC(=O)c1cn(Nc2ccc(F)cc2F)c2nc(Cl)c(F)cc2c1=O
17,156 to 158,CN(Cc1cc2c3c(c1)c(=O)c(C(=O)NCc1ccc(F)cc1)cn3CC(=O)N2C)C[C@@H](O)c1nccs1
18,273 to 275,COc1cc(=O)[nH]c2cc(O)ccc2c1=O
19,204,CN(c1nccc(-n2nnc3ccccc32)n1)[C@H]1CC[C@H](N(C)S(C)(=O)=O)CC1
20,197 to 198,O=C1CCCC(=O)N1Nc1ccc([N+](=O)[O-])cc1

row,melting point [°C],SMILES
1,185 to 187,Cc1ccc(CS(=O)c2nc3cc4c(cc3[nH]2)OCO4)nc1 (stereo not given)
2,202 to 212,CCCN1CCC(Cc2ccc3c(c2)c(Cc2ccc(C(=O)O)cc2OC)cn3C)C1=O (stereo not given)
3,131 to 132,CC(=O)NC1CCc2c(C)cc(C)c(O)c21 (stereo not given)
4,120 to 121,CCn1c(COCc2ccc(OC)cc2)nc(C(C)C)c1Sc1cc(Cl)cc(Cl)c1
5,121,COc1cc(C)cc(OC)c1C(=O)c1ccccc1N(C)C(=O)CBr
6,124 to 126,Cc1cc(C)c(C(C#N)=CO)c(C)c1
7,113 to 114,CCCCc1c(OC)cc(C(=O)O)nc1OC
8,154 to 157,C[C@@H]1[C@@H](NS(=O)(=O)c2ccc(F)cc2)CN1C(c1ccc(Cl)cc1)c1ccc(Cl)cc1
9,122,COCCOc1ccc(CCCOC(=O)NS(=O)(=O)NC2CCC(C)CC2)c(Oc2ncc(C(F)(F)F)cc2Cl)c1 (stereo not given)
10,71 to 72,C=CC(=O)NC(C)(C)c1ccc(CC(=O)OCCC)cc1
11,139 to 141,O=[N+]([O-])c1cnc(Sc2nccnc2Cl)s1
12,143 to 146,O=C(Nc1ccc(F)cc1)c1ccc([N+](=O)[O-])cc1
13,218,O=C1NC(=Cc2ccccc2)C(NCc2ccccc2)=C1[N+](=O)[O-]
14,150,CCN1CCN([C@@H](CNS(=O)(=O)c2ccc(OCc3cc(C)nc4ccccc34)cc2)C(=O)NO)CC1
15,140 to 143,CCN(c1ccc(C)cc1)c1cc(NC)nc(C)n1
16,91 to 94,Cc1noc(NS(=O)(=O)c2ccccc2[N+](=O)[O-])c1C
17,115 to 126,Cc1ccc(CSC[C@H](NC(=O)[C@H](C)CSC(=O)c2ccccc2)C(=O)O)cc1
18,185 to 187,O=C1[C@H]2CCC[C@H]2N(C(=O)CNS(=O)(=O)c2ccccc2)c2ccccc2N1Cc1ccccc1 (relative stereo)
19,108 to 112,CCCCNCc1ccc2cc(O)ccc2c1
20,162 to 166,Cc1nn2c(c1Cl)N=NC2CCNC(=O)c1ccccc1C(=O)O (stereo not given)

# Second part, the compound before the results:
row,SMILES,melting point [°C]
1,O=C(O)CN1C(=O)C(=Cc2ccc(OCc3ccc(F)cc3F)c(OCc3ccccc3)c2)SC1=S,236 to 239
2,COc1cc(Nc2c(C#N)cnc3cc(/C=C/C(=O)O)sc23)c(Cl)cc1Cl,> 250
3,CC#CCOc1ccc(S(=O)C(C(=O)NO)c2ccc3ccccc3c2)cc1 (stereo not given),157
4,COC(=O)c1ccc(CC(C)NCC(O)c2ccc(O)c(O)c2)cc1 (stereo not given),169
5,CCCN(CCCCNC(=O)N1CC=C(c2ccccc2)CC1)C1CCc2ncsc2C1 (stereo not given),115
6,CCC(=NNC(=O)c1cccc(C(F)(F)F)c1)c1cccnc1,119
7,N#Cc1ccc(NC(=S)Nc2ccc(NNC=O)cc2)cc1,180 to 182
8,CC(=C(Br)Br)c1cn(-c2c(Cl)cc(C(F)(F)F)cc2Cl)nc1C#N,119 to 122
9,Cc1cccc2c1CCn1cc(-c3ccccc3)nc1C2OC1CCN(C)CC1 (stereo not given),71
10,Nc1cc(-c2cccnc2)c[nH]c1=O,280 to 290
11,CCOC(=O)c1ccc(-n2cncn2)cc1,97 to 99
12,CCc1ccc2cc[nH]c2n1,117 to 120
13,O=C(O)c1cn(-c2ccc(F)cc2)c2c(F)c(N3Cc4ccc(Cl)cc4C3)c(F)cc2c1=O,> 300
14,N#CCOc1cc(C(F)(F)F)nc2ccc(-c3cc4ccccc4o3)cc12,174 to 176
15,CCC(OC(=O)c1ccccc1)c1nc2c(C(F)(F)F)cccc2c(O)c1C(=O)Nc1nccs1 (stereo not given),230
16,CN(Cc1ccccc1)c1cc(Cl)c(C=O)c(Cl)c1,66 to 70
17,c1coc(C2Nc3ccccc3N3CCc4cccc2c43)c1 (stereo not given),141 to 144
18,FC(F)(F)c1ccc(-c2cc(Oc3cccc4ccncc34)ncn2)cc1,194 to 195
19,CC(=O)NCC1CN(c2ccc(N3CCN(c4nc5ccc(F)c(F)c5o4)CC3)c(F)c2)C(=O)O1 (stereo not given),213 to 214
20,CC1CC2C3CCC4=CC(=O)CCC4(C)C3=CCC2(C)C1(O)C(=O)CO (stereo not given),167 to 168

row,SMILES,melting point [°C]
1,O=C(c1ccc(Cl)cc1)n1c2c(c3ccccc31)CC(C(=O)O)(C(=O)O)CC2,210 to 212
2,C=CC(CC(O)C(CC(C)C)NC(=O)C(Cc1c[nH]cn1)NC(=O)C(Cc1ccccc1)Cc1ccccc1)C(C)C (stereo not given),120
3,COC1(c2cc(F)cc(Sc3ccc(C(=O)C(F)(F)F)cc3)c2)CCOCC1,63
4,CC(=O)c1ccc(NC2=Nc3ccc(Cl)cc3CS2)cc1,174 to 175
5,O=C(CC(c1ccccc1)c1ccccc1)N1CCC(N2Cc3ccccc3C2=O)CC1,166 to 169
6,COc1ccc(-c2nn(CC3CCCC3)c(=O)cc2-c2ccncc2)cc1,119 to 120
7,CN1CC[C@@H](c2c(O)cc(O)c3c(=O)cc(-c4cc(Cl)ccc4Br)oc23)[C@@H]1CO,233 to 235
8,C(=Nc1ccc(Nc2ccccc2)cc1)Nc1ccc(Nc2ccccc2)cc1,173 to 175
9,Clc1ccc2[nH]cc(C3=CCNCC3)c2c1,177
10,COc1ccc2c(C=O)c(OCc3ccccc3)ccc2c1C(F)(F)F,143 to 145
11,Fc1ccc(Cn2cnc3c(-c4ccco4)ncnc32)cc1,162 to 164
12,NC1=NS(=O)(=O)Nc2cccc(OC3CCCCC3)c21,215 to 216
13,N#CCCNC(=O)c1cccc(-c2ccc3c(c2)N(Cc2ccc(Cl)cc2Cl)CC3)c1,148 to 149
14,O=c1cc(C(F)(F)F)nc[nH]1,157
15,CSc1ccc(Cn2nc(-c3ccc(SC)cc3)c(-c3ccc(F)cc3)cc2=O)cc1,116
16,CCOC(=O)/C=C/c1ccc(C=Cc2nc(-c3ccccc3)oc2C)cc1,161 to 162
17,Cc1nn(-c2ccccn2)c2[nH]c3ccc(C(=O)O)cc3c(=O)c12,> 300
18,COc1ccc(-n2c(-c3ccccc3)cc3c2CCCC3)cc1,132 to 133
19,NC(=O)Nc1cccc2c1C(=O)c1c-2n[nH]c1-c1ccc(N2CCNCC2)cc1,257
20,COC=C(C(=O)OC)c1c(OC)ncnc1Oc1cccc(COc2ccccc2C#N)c1,132 to 135

row,SMILES,melting point [°C]
1,Clc1ccc(C(Cl)c2cc3cc(Cl)cc(Cl)c3o2)cc1 (stereo not given),72 to 74
2,O=C(CCC(=O)N1CCC[C@H]1C(=O)O)c1cccs1,100 to 102
3,COC(=O)c1cccc(Nc2nc(Cl)nc3[nH]cnc23)c1,242
4,Cc1nccn1N=Cc1ccc(N(C)C)cc1,166 to 167
5,Nc1c(CC(=O)O)cc(Cl)cc1Oc1ccccc1F,154 to 156
6,O=C1c2cccc(NC(=S)Nc3cccc(Br)n3)c2C2CCCCN12 (stereo not given),195
7,Cc1ncc2c(c1OCC(=O)O)COC2c1ccc(F)cc1 (stereo not given),214
8,COc1ccc(NCC(=O)N2CCC(Cc3ccc(F)cc3)CC2)cc1,141 to 143
9,Cc1cc(C(=O)NCO)ncc1C(c1c(F)ccc(F)c1F)S(=O)(=O)CCC(C)(F)F (stereo not given),161 to 162
10,COC1(c2cnc(Sc3ccc(/C(C)=N/O)cc3)s2)CCOCC1,114 to 116
11,Cc1cccc(C(=O)O)c1OC1CCOC1=O (stereo not given),129 to 131
12,O=C(Nc1ccccc1)OCC1(COC(=O)Nc2ccccc2)CS(=O)c2ccccc2C1=O (stereo not given),220 to 222
13,COc1cc(Nc2c(C#N)cnc3cc(-c4cc5ccccc5o4)sc23)c(Cl)cc1Cl,281 to 282
14,Cc1cc(C)c2cc(C3CCNC(C)C3)sc2c1 (stereo not given),52 to 57
15,CCCCOC1(c2nc(-c3ccc(F)cc3)c(-c3ccncc3)[nH]2)CCN(C)CC1,177
16,O=CNNc1ccc(NC(=S)Nc2ccc(NNC=O)cc2)cc1,212 to 214
17,O=C(CBr)Nc1coc2ccccc2c1=O,198
18,O=C1C(=Cc2ccccc2N2CCNCC2)SCCN1c1ccc(Cl)c(Cl)c1,154 to 155
19,CCc1nc(C(=O)O)c(C(=O)O)[nH]1,265 to 268
20,COCc1ncnc(N2CCCCC2)c1C,45 to 47
